Experimental data published in the supplement of paper PMC10307832.

Assays:
Experiment in all cases: relative viability (nuclei count vs DMSO), 5 days (fraction); higher = more cells survive
NCI-H1666 = system: NCI-H1666
Summary of the method: (§1)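 Relative viability is defined as nuclei in treated wells over nuclei in vehicle wells. Duplicate plates were run and medians reported. Lung cancer cell lines in 1536-well plates were dosed by pin tool one day after seeding, with one drug or with a fixed anchor-drug dose plus five library-drug doses (not always all listed) in √10 steps, and nuclei were counted after 5 days.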

NCI-H727 = system: NCI-H727
Summary of the method: as §1

NCI-H1650 = system: NCI-H1650
Summary of the method: as §1

HARA = system: HARA
Summary of the method: as §1

BEN = system: BEN
Summary of the method: as §1

NCI-H2170 = system: NCI-H2170
Summary of the method: as §1

COR-L 105 = system: COR-L 105
Summary of the method: as §1

NCI-H2009 = system: NCI-H2009
Summary of the method: as §1

EKVX = system: EKVX
Summary of the method: as §1

NCI-H661 = system: NCI-H661
Summary of the method: as §1

ABC-1 = system: ABC-1
Summary of the method: as §1

NCI-H441 = system: NCI-H441
Summary of the method: as §1

NCI-H460 = system: NCI-H460
Summary of the method: as §1

LOU-NH91 = system: LOU-NH91
Summary of the method: as §1

SW 900 = system: SW 900
Summary of the method: as §1

NCI-H1437 = system: NCI-H1437
Summary of the method: as §1

HCC-366 = system: HCC-366
Summary of the method: as §1

PC-14 = system: PC-14
Summary of the method: as §1

201T = system: 201T
Summary of the method: as §1

LK-2 = system: LK-2
Summary of the method: as §1

CAL-12T = system: CAL-12T
Summary of the method: as §1

NCI-H3122 = system: NCI-H3122
Summary of the method: as §1

`Nc1ccn([C@@H]2O[C@H](CO)[C@@H](O)[C@@H]2O)c(=O)n1` [Cytarabine] + N=C(N)NC(=N)NCCc1ccccc1 [Phenformin] (partner 250 µM) showed a relative viability (NCI-H1666; first compound 0.005 µM) of 0.545, a relative viability (NCI-H1666; first compound 0.01581 µM) of 0.669 and a relative viability (NCI-H1666; first compound 0.05 µM) of 0.466. For the same molecule, the relative viability (NCI-H1666; first compound 0.1581 µM) was 0.401, the relative viability (NCI-H1666; first compound 0.5 µM) was 0.396 and the relative viability (NCI-H727; first compound 0.005 µM) was 0.451. For the same molecule, the relative viability (NCI-H727; first compound 0.01581 µM) was 0.479, the relative viability (NCI-H727; first compound 0.05 µM) was 0.486 and the relative viability (NCI-H727; first compound 0.1581 µM) was 0.406. The relative viability (NCI-H727; first compound 0.5 µM) was 0.429, the relative viability (NCI-H1650; first compound 0.005 µM) was 0.386 and the relative viability (NCI-H1650; first compound 0.01581 µM) was 0.263. It also gave a relative viability (NCI-H1650; first compound 0.05 µM) of 0.252, a relative viability (NCI-H1650; first compound 0.1581 µM) of 0.177 and a relative viability (NCI-H1650; first compound 0.5 µM) of 0.125. The relative viability (HARA; first compound 0.005 µM) was 0.359, the relative viability (HARA; first compound 0.01581 µM) was 0.325 and the relative viability (HARA; first compound 0.05 µM) was 0.296. It also gave a relative viability (HARA; first compound 0.1581 µM) of 0.196, a relative viability (HARA; first compound 0.5 µM) of 0.0852 and a relative viability (BEN; first compound 0.005 µM) of 0.193. It also gave a relative viability (BEN; first compound 0.01581 µM) of 0.22, a relative viability (BEN; first compound 0.05 µM) of 0.244 and a relative viability (BEN; first compound 0.1581 µM) of 0.195. For the same molecule, the relative viability (BEN; first compound 0.5 µM) was 0.212, the relative viability (NCI-H2170; first compound 0.005 µM) was 0.328 and the relative viability (NCI-H2170; first compound 0.01581 µM) was 0.321. It also gave a relative viability (NCI-H2170; first compound 0.05 µM) of 0.25, a relative viability (NCI-H2170; first compound 0.1581 µM) of 0.218 and a relative viability (NCI-H2170; first compound 0.5 µM) of 0.205. The relative viability (COR-L 105; first compound 0.005 µM) was 0.428, the relative viability (COR-L 105; first compound 0.01581 µM) was 0.504 and the relative viability (COR-L 105; first compound 0.05 µM) was 0.43. For the same molecule, the relative viability (COR-L 105; first compound 0.1581 µM) was 0.29, the relative viability (COR-L 105; first compound 0.5 µM) was 0.259 and the relative viability (NCI-H2009; first compound 0.005 µM) was 0.42. The relative viability (NCI-H2009; first compound 0.01581 µM) was 0.503, the relative viability (NCI-H2009; first compound 0.05 µM) was 0.455 and the relative viability (NCI-H2009; first compound 0.1581 µM) was 0.386. For the same molecule, the relative viability (NCI-H2009; first compound 0.5 µM) was 0.268, the relative viability (EKVX; first compound 0.005 µM) was 0.217 and the relative viability (EKVX; first compound 0.01581 µM) was 0.192. For the same molecule, the relative viability (EKVX; first compound 0.05 µM) was 0.172, the relative viability (EKVX; first compound 0.1581 µM) was 0.211 and the relative viability (EKVX; first compound 0.5 µM) was 0.207. The relative viability (NCI-H661; first compound 0.005 µM) was 0.264, the relative viability (NCI-H661; first compound 0.01581 µM) was 0.254 and the relative viability (NCI-H661; first compound 0.05 µM) was 0.239. The relative viability (NCI-H661; first compound 0.1581 µM) was 0.23, the relative viability (NCI-H661; first compound 0.5 µM) was 0.237 and the relative viability (ABC-1; first compound 0.005 µM) was 0.238. For the same molecule, the relative viability (ABC-1; first compound 0.01581 µM) was 0.211, the relative viability (ABC-1; first compound 0.05 µM) was 0.265 and the relative viability (ABC-1; first compound 0.1581 µM) was 0.223. For the same molecule, the relative viability (ABC-1; first compound 0.5 µM) was 0.174, the relative viability (NCI-H441; first compound 0.005 µM) was 0.79 and the relative viability (NCI-H441; first compound 0.01581 µM) was 0.655. For the same molecule, the relative viability (NCI-H441; first compound 0.05 µM) was 0.783, the relative viability (NCI-H441; first compound 0.1581 µM) was 0.399 and the relative viability (NCI-H441; first compound 0.5 µM) was 0.298. The relative viability (NCI-H460; first compound 0.005 µM) was 0.309, the relative viability (NCI-H460; first compound 0.01581 µM) was 0.248 and the relative viability (NCI-H460; first compound 0.05 µM) was 0.114. For the same molecule, the relative viability (NCI-H460; first compound 0.1581 µM) was 0.0419, the relative viability (NCI-H460; first compound 0.5 µM) was 0.0341 and the relative viability (LOU-NH91; first compound 0.005 µM) was 0.732. For the same molecule, the relative viability (LOU-NH91; first compound 0.01581 µM) was 0.75, the relative viability (LOU-NH91; first compound 0.05 µM) was 0.467 and the relative viability (LOU-NH91; first compound 0.1581 µM) was 0.413. For the same molecule, the relative viability (LOU-NH91; first compound 0.5 µM) was 0.508, the relative viability (SW 900; first compound 0.005 µM) was 0.472 and the relative viability (SW 900; first compound 0.01581 µM) was 0.395. For the same molecule, the relative viability (SW 900; first compound 0.05 µM) was 0.367, the relative viability (SW 900; first compound 0.1581 µM) was 0.18 and the relative viability (SW 900; first compound 0.5 µM) was 0.155. For the same molecule, the relative viability (NCI-H1437; first compound 0.005 µM) was 0.199, the relative viability (NCI-H1437; first compound 0.01581 µM) was 0.183 and the relative viability (NCI-H1437; first compound 0.05 µM) was 0.17. The relative viability (NCI-H1437; first compound 0.5 µM) was 0.105, the relative viability (HCC-366; first compound 0.005 µM) was 0.617 and the relative viability (HCC-366; first compound 0.01581 µM) was 0.586. The relative viability (HCC-366; first compound 0.05 µM) was 0.528, the relative viability (HCC-366; first compound 0.1581 µM) was 0.2 and the relative viability (HCC-366; first compound 0.5 µM) was 0.0951. For the same molecule, the relative viability (PC-14; first compound 0.005 µM) was 0.499, the relative viability (PC-14; first compound 0.01581 µM) was 0.316 and the relative viability (PC-14; first compound 0.05 µM) was 0.259. For the same molecule, the relative viability (PC-14; first compound 0.1581 µM) was 0.0817, the relative viability (PC-14; first compound 0.5 µM) was 0.0908 and the relative viability (201T; first compound 0.005 µM) was 0.369. It also gave a relative viability (201T; first compound 0.01581 µM) of 0.432, a relative viability (201T; first compound 0.05 µM) of 0.428 and a relative viability (201T; first compound 0.1581 µM) of 0.352. For the same molecule, the relative viability (201T; first compound 0.5 µM) was 0.356, the relative viability (LK-2; first compound 0.005 µM) was 0.357 and the relative viability (LK-2; first compound 0.01581 µM) was 0.247. It also gave a relative viability (LK-2; first compound 0.05 µM) of 0.288, a relative viability (LK-2; first compound 0.1581 µM) of 0.149 and a relative viability (LK-2; first compound 0.5 µM) of 0.196. For the same molecule, the relative viability (CAL-12T; first compound 0.005 µM) was 0.524, the relative viability (CAL-12T; first compound 0.01581 µM) was 0.489 and the relative viability (CAL-12T; first compound 0.05 µM) was 0.638. It also gave a relative viability (CAL-12T; first compound 0.1581 µM) of 0.283, a relative viability (CAL-12T; first compound 0.5 µM) of 0.18 and a relative viability (NCI-H3122; first compound 0.005 µM) of 0.347. For the same molecule, the relative viability (NCI-H3122; first compound 0.01581 µM) was 0.323, the relative viability (NCI-H3122; first compound 0.05 µM) was 0.293 and the relative viability (NCI-H3122; first compound 0.1581 µM) was 0.244. It also gave a relative viability (NCI-H3122; first compound 0.5 µM) of 0.18.
